Experimental data: patent publication US8124609B2, “Acyclic nucleoside derivatives” (Medivir AB, priority 1996, dated 2012)

Tests used:
Assay type in all cases: in vivo
[1] = Bioavailability testing in rats (24 h urinary H2G recovery); conditions: rat; for Bioavailability (Table 2): 0.1 mmol/kg per oral, 24 hour urinary H2G recovery as percentage of recovery after 0.1 mmol/kg i.v. H2G
Procedure: The bioavailability of compounds of the invention were compared to the parent compound H2G and other H2G derivatives in a rat model. Compounds of the invention and comparative compounds were administered, per oral (by catheter into the stomach), to multiples of three individually weighed animals to give 0.1 mmol/kg of the dissolved prod rug in an aqueous (Example 4, 5, Comparative example 1-3, 5, 8), peanut oil (Comparative examples 4, 9, 10) or propylene glycol (Example 1-3, 6-12, 17, Comparative example 6, 7) vehicle dependent on the solubility of the test compound ingredient. The animals were fasted from 5 hours before to approximately 17 hours after administration and were maintained in metabolic cages. Urine was collected for the 24 hours following administration and frozen until analysis. H2G was analysed in the urine using the HPLC/UV assay of Stahle & Öberg, Antimicrob Agents Chemother. 36 No 2, 339-342 (1992), modified as follows: samples upon thawing are diluted 1:100 in aq dist H2O and filtered through an amicon filter with centrifugation at 3000 rpm for 10 minutes. Duplicate 30 μl samples are chromatographed on an HPLC column; Zorbax SB-C18; 75×4.6 mm; 3.5 micron; Mobile phase 0.05M NH4PO4, 3-4% methanol, pH 3.3-3.5; 0.5 ml/min; 254 nm, retention time for H2G at MeOH 4% and pH 3.33, ˜12.5 min. Bioavailability is calculated as the measured H2G recovery from each animal averaged over at least three animals and expressed as a percentage of the averaged 24 hour urinary H2G recovery from a group of 4 individually weighed rats respectively injected i.vjugularis with 0.1 mmol/kg H2G in a Ringer's buffer vehicle and analysed as above.
Comparative example 1 (H2G) was from the same batch as used for preparation of Examples 1 to 12. The preparation of Comparative example 2 (monoVal-H2G) and 3 (diVal-H2G) are shown in Examples 21 and 23. […] Comparative examples 5 & 8 (Val/Ac H2G) were prepared analogously to Example 4 using acetic anhydride with relevant monovaline H2G. […]

[2] = Plasma concentrations in rats (plasma drug assay, H2G AUC oral vs i.v.); conditions: rat, 10 mg/kg oral dose in propylene glycol, plasma H2G AUC vs 10 mg/kg intravenous H2G
Procedure: A plasma concentration assay was done in male Sprague Dawley derived rats. The animals were fasted overnight prior to dosing but were permitted free access to water. Each of the compounds evaluated was prepared as a solution/suspension in propylene glycol at a concentration corresponding to 10 mg H2G/ml and shaken at room temperature for eight hours. Groups of rats (at least 4 rats in each group) received a 10 mg/kg (1 ml/kg) oral dose of each of the compounds; the dose was administered by gavage. At selected time points after dosing (0.25, 0.5, 1, 1.5, 2, 4, 6, 9, 12, 15, and 24 hours after dosing), heparinized blood samples (0.4 ml/sample) were obtained from a tail vein of each animal. The blood samples were immediately chilled in an ice bath. Within two hours of collection, the plasma was separated from the red cells by centrifugation and frozen till analysis. The components of interest were separated from the plasma proteins using acetonitrile precipitation. Following lyophilisation, and reconstitution, the plasma concentrations were determined by reverse phase HPLC with fluorescence detection. The oral uptake of H2G and other test compounds was determined by comparison of the H2G area under the curve derived from the oral dose compared to that obtained from a 10 mg/kg intravenous dose of H2G, administered to a separate group of rats. The results are depicted in Table 1B above.

[3] = test system: Herpes simplex virus-1 (HSV-1); test: Antiviral activity in HSV-1-infected mouse (survival); conditions: 21 and 83 mg/kg p.o. three times daily for 5 days, relative to equivalent dose of acyclovir
Procedure: Herpes simplex virus-1 (HSV-1)-infected mouse serves as an animal model to determine the efficacy of antiviral agents in vivo. Mice inoculated intraperitoneally with HSV-1 at 1000 times the LD50 were administered either with a formulation comprising the currently marketed anti-herpes agent acyclovir (21 and 83 mg/kg in a 2% propylene glycol in sterile water vehicle, three times daily, p.o.) or the compound of Example 29 (21 and 83 mg/kg in a 2% propylene glycol in sterile water vehicle, three times daily, p.o.) for 5 consecutive days beginning 5 hours after inoculation. The animals were assessed daily for deaths. […] In the legend, the compound of the invention is denoted Ex. 29 and acyclovir is denoted ACV.

Nc1nc2c(ncn2CC(CO)CCO)c(=O)[nH]1 (centres unmarked) [Comparative example 1, 9-[4-hydroxy-(2-hydroxymethyl)butyl]guanine]
Bioavailability (Table 2) [1]: 8% | Bioavailability (Table 1A) ([1]; oral, urinary recovery assay of H2G, relative to i.v. H2G): 8% | Bioavailability (Table 1B) [2]: 3.8%

CC(=O)CCCC(=O)OC[C@H](CCOC(=O)[C@@H](N)C(C)C)Cn1cnc2c(=O)[nH]c(N)nc21 [Example 10]
Bioavailability (Table 2) [1]: 52%

CCCCCCCCCCCCCCCCCC(=O)OC[C@H](CCOC(=O)[C@@H](N)C(C)C)Cn1cnc2c(=O)[nH]c(N)nc21.Cl [Example 29]
percentage of mice surviving the HSV-1 infection [3]: significantly greater
